# In PubChem BioAssay (NCI):
# Several values for one entry are separate records, joined by “and”; a condition that tells them apart may be missing. Equal values may be shown once.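 Results reflect a 48-hour exposure of cells in 96-well plates to compound at five concentrations. GI50 marks 50% less growth. The concentration for full growth arrest is given as TGI.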
# Columns and labels:
# Experiment in all cases: inhibition of tumour cell growth, NCI panel, 48 h
# SK-MEL-2 melanoma = test system: SK-MEL-2 melanoma
# OVCAR-4 ovarian = test system: OVCAR-4 ovarian
# LOX IMVI melanoma = test system: LOX IMVI melanoma
# NCI-H226 lung = test system: NCI-H226 lung
# SK-MEL-5 melanoma = test system: SK-MEL-5 melanoma
# NCI-H460 lung = test system: NCI-H460 lung
# MDA-MB-435 = test system: MDA-MB-435
# MALME-3M melanoma = test system: MALME-3M melanoma
# A549 NSCLC = test system: A549 NSCLC
# SW-620 colon = test system: SW-620 colon
SMILES,GI50 (SK-MEL-2 melanoma),TGI (SK-MEL-2 melanoma),GI50 (OVCAR-4 ovarian),TGI (OVCAR-4 ovarian),GI50 (LOX IMVI melanoma),TGI (LOX IMVI melanoma),GI50 (NCI-H226 lung),TGI (NCI-H226 lung),GI50 (SK-MEL-5 melanoma),TGI (SK-MEL-5 melanoma),GI50 (NCI-H460 lung),TGI (NCI-H460 lung),GI50 (MDA-MB-435),TGI (MDA-MB-435),GI50 (MALME-3M melanoma),TGI (MALME-3M melanoma),GI50 (A549 NSCLC),TGI (A549 NSCLC),GI50 (SW-620 colon),TGI (SW-620 colon)
Nc1nc2ccccc2c2c1S(=O)(=O)c1ccc(Cl)cc1C2=O,2.27 µM,> 50 µM,1.46 µM,10.8 µM,0.873 µM,1.84 µM,2.14 µM,17.3 µM,2.02 µM,30.9 µM,1.68 µM,6.63 µM,1.65 µM,> 50 µM,1.23 µM,4.25 µM,3.26 µM,> 50 µM,1.02 µM,2.25 µM
N#C/C(=C\c1cc2ccc(N3CCC3)cc2oc1=O)C(=O)N(CC(=O)O)CC(=O)O,> 100 µM,> 100 µM,> 100 µM,> 100 µM,> 100 µM,> 100 µM,> 100 µM,> 100 µM,> 100 µM,> 100 µM,> 100 µM,> 100 µM,> 100 µM,> 100 µM,> 100 µM,> 100 µM,> 100 µM,> 100 µM,> 100 µM,> 100 µM
COc1ccc(S(=O)(=O)N2CCNCC2)cc1OC,> 100 µM,> 100 µM,> 100 µM,> 100 µM,> 100 µM,> 100 µM,> 100 µM,> 100 µM,> 100 µM,> 100 µM,> 100 µM,> 100 µM,> 100 µM,> 100 µM,> 100 µM,> 100 µM,> 100 µM,> 100 µM,> 100 µM,> 100 µM
N#Cc1cc2c(cc1Cl)Sc1nnc(Nc3cccc4ccccc34)n1S2(=O)=O,17.3 µM,> 100 µM,6.48 µM,26.8 µM,3.17 µM,10.3 µM,7.83 µM,20.9 µM,3.95 µM,15.7 µM,13.8 µM,33.8 µM,4.35 µM,16.4 µM,2.03 µM,5.75 µM,37 µM,> 100 µM,3.61 µM,12.3 µM
COc1ccc(OC)c(Cc2cnc3nc(N)nc(N)c3c2C)c1,–,27.9 µM,–,28.8 µM,–,25.6 µM,–,33.3 µM,–,93.8 µM,–,12.2 µM,–,> 49 µM,–,13.7 µM,–,36.9 µM,–,> 45.1 µM
[Cl][Cu][Cl],> 10 µM,> 10 µM,> 10 µM,> 10 µM,> 10 µM,> 10 µM,> 10 µM,> 10 µM,> 10 µM,> 10 µM,> 10 µM,> 10 µM,> 10 µM,> 10 µM,> 10 µM,> 10 µM,> 10 µM,> 10 µM,> 10 µM,> 10 µM
O=[N+]([O-])c1cc(Cc2cc([N+](=O)[O-])c3cccnc3c2O)c(O)c2ncccc12,–,29.6 µM,–,> 74.1 µM,–,> 66.2 µM,–,43.5 µM,–,24.5 µM,–,9.4 µM,–,32.7 µM,–,25.5 µM,–,30.8 µM,–,> 67.9 µM
CC(C)N(Cc1ccc(F)cc1)c1ccc(CO)c(Cl)c1,1.61 µM,16.6 µM,0.116 µM,1.7 µM,8.35 µM,21.6 µM,0.054 µM,0.179 µM,8.67 µM,21.8 µM,0.144 µM,10.7 µM,15 µM,29.5 µM,14.4 µM,30.3 µM,1.03 µM,17.5 µM,0.363 µM,15.3 µM
NC(=O)CC(N)c1nn[nH]n1 (centres undefined),–,> 100 µM,–,> 100 µM,–,> 100 µM,–,> 100 µM,–,> 100 µM,–,> 100 µM,–,> 100 µM,–,> 100 µM,–,> 100 µM,–,> 100 µM
COc1c(OC(C)C)cc2cc(O)c(C(=O)NC3Cc4ccc(c(Cl)n4)O[C@@H]4C=C5C#C/C(=C\C#CC6OC56C4OC4CC(C)(O)C(O)C(C)O4)C(OC4CC(O)C(N(C)C)C(C)O4)COC3=O)cc2c1OC (some centres undefined),10 mg/L,> 36.3 µM and 31.8 µg/mL,> 36.3 µM and 30.8 µg/mL,> 36.3 µM and 37.5 µg/mL,0.529 mg/L,17.8 mg/L,2.8 mg/L,> 36.3 µM and 37.5 µg/mL,> 36.3 µM and 0.546 µg/mL,> 36.3 µM and 10.1 µg/mL,3.81 µM and 0.0528 µg/mL,> 36.3 µM and 7.13 µg/mL,–,> 36.3 µM,0.533 mg/L,> 36.3 µM and 37.5 µg/mL,> 36.3 µM and 0.798 µg/mL,> 36.3 µM and 37.5 µg/mL,0.165 mg/L,37.5 mg/L
